Results reported in US8173840B2, “Compounds with high therapeutic index” (Signature R&D Holdings, LLC, priority 2003, dated 2012).
“And” between values parts separate entries of the source, which are not always exact repeats. Identical values can stand only once.

Tests used:
Swiss Albino Mice = assay: 28-day chronic toxicity study of ibuprofen esters; settings: 28 days
Description: Randomization was done by the method of stratified randomization procedure using SAS software program (Version 8.2) with stratification by bodyweight.
The duration of dosing was 28 days. All the animals were daily tested until the end of the study for the presence/absence of clinical symptoms of toxicity. Cage side observations included changes in the skin, eyes, posture, gait, respiration and behavior pattern. The incidence of twitching, tremors, convulsions, salivation, diarrhea and death if any, were also recorded.

[1] = test system: male albino mice (Swiss strain); assay: Acetylcholine induced abdominal constriction (writhe) method; assay type: in vivo, mouse; settings: for Number of animals showing absence of single writhe (number of animals per dose = 10), One hour after dosing / Number of animals showing absence of single writhe (number of animals per dose = 10), Three hours after dosing: gavage
Description: Ibuprofen (racemic mixture) and ibuprofen (S)-(+) served as reference controls.
The study was conducted at two dose levels viz. 50 mg and 100 mg/kg body weight along with a vehicle control group. At each dose level 10 animals were used. All the doses were expressed as ibuprofen molar equivalents. The doses used as well as the molar equivalents are presented below.
The efficacy in terms of antagonizing effect on acetylcholine induced single writhe at two dose levels—50.0 and 100.0 mg/kg for the three formulations and reference controls are presented below.

rats = assay: Hypolipidemic property, blood triglycerides in rats on high sugar diet; assay type: in vivo, rat; settings: for anti-hyperlipidemic properties: compared with Fenofibrate; for Triglycerides, Day 7 / Triglycerides, Day zero / Triglycerides, Day 14: individual animals; for Triglycerides, Day 7: after 1 week high sugar diet, before drug; for Triglycerides, Day zero: before diet and drug; for Triglycerides, Day 14: drug day 7-14
Description: Rats were checked for time zero triglyceride level in blood. Then the rats were set on high sugar diet, such as 30% sucrose in water for 1 week. Then at the end of 1 week, rats were tested for triglycerides, and were put on normal diet. From day 7-14 the rats were administered either test or control drug. Triglycerides were again tested on the 14th day in rat blood.

albino mouse = assay: Anesthetic effect in male albino mice, righting reflex as index; settings: low, intermediate, high dose
Description: However the doses of low, intermediate and high for different formulations and reference control were different.
The different doses for each formulation and reference control were selected based on the recommendation of Sponsor. All the doses were expressed as propofol molar equivalents.

[2] = test system: albino mice (Swiss strain); assay: 14 day repeated dose toxicity study, intravenous route, propofol esters
Description: by conducting a 14 day repeated dose toxicity study through intravenous route using albino mice as test system.
Propofol and its derivatives above were administered to albino mice (Swiss strain), through intravenous route daily for a period of 14 days using sterile sodium chloride solution as vehicle. The study was conducted at one dose level only along with a vehicle control group as per the recommendation of the Sponsor.
The doses were selected as per the recommendation of the Sponsor. The test doses are expressed as Propofol molar equivalents.

[3] = 50.0 mg/kg in terms of Ibuprofen
[4] = 100.0 mg/kg in terms of Ibuprofen

| Compound | Number of animals showing absence of single writhe (number of animals per dose = 10), One hour after dosing [1, 3] | Number of animals showing absence of single writhe (number of animals per dose = 10), Three hours after dosing [1, 3] | Number of animals showing absence of single writhe (number of animals per dose = 10), One hour after dosing [1, 4] | Number of animals showing absence of single writhe (number of animals per dose = 10), Three hours after dosing [1, 4] | % Change From day 0 (rats; Dose 25 mg/kg) [%] | % Change from day 7 (rats; Dose 25 mg/kg) [%] | Absolute Change from day 0 (rats; Dose 25 mg/kg) | Absolute Change from day 7 (rats; Dose 25 mg/kg) | % Change From day 0 (rats; Dose 50 mg/kg) [%] | % Change from day 7 (rats; Dose 50 mg/kg) [%] | Absolute Change from day 0 (rats; Dose 50 mg/kg) | Absolute Change from day 7 (rats; Dose 50 mg/kg) | % Change From day 0 (rats; Dose 100 mg/kg) [%] | % Change from day 7 (rats; Dose 100 mg/kg) [%] | Absolute Change from day 0 (rats; Dose 100 mg/kg) | Absolute Change from day 7 (rats; Dose 100 mg/kg) | further results |
| --- | --- | --- | --- | --- | --- | --- | --- | --- | --- | --- | --- | --- | --- | --- | --- | --- | --- |
| CC(C)Cc1ccc(C(C)C(=O)O[C@H]2CN[C@H](C(=O)O)C2)cc1 (mixture of isomers) [(±)-Ibuprofen-L-hydroxyproline ester, 4(R)-[2-(4-Isobutyl-phenyl)-propionyloxy]-pyrrolidine-2(S)-carboxylic acid] [listing 1 of 2 here] |  |  |  |  |  |  |  |  |  |  |  |  |  |  |  |  | No of animals survived (Swiss Albino Mice; 10 animals per group): 9; animals that died (Swiss Albino Mice; both sexes): 10%; Mortality (Swiss Albino Mice; Female): 1/5; Mortality (Swiss Albino Mice; Male): Nil; Average Change In body Weight (Swiss Albino Mice; surviving animals): 1.43 gms; Percentage Change of body weight (Swiss Albino Mice; surviving animals): 5.75% |
| CC(C)Cc1ccc(C(C)C(=O)OC[C@H](N)C(=O)O)cc1.Cl (mixture of isomers) [(±)-Ibuprofen-L-serine ester, 2(S)-Amino-3-[2(R,S)-(4-isobutylphenyl)-propionyloxy]-propionic acid, hydrochloride] | 4 | 2 | 6 | 4 |  |  |  |  |  |  |  |  |  |  |  |  |  |
| CC(C)Cc1ccc(C(C)C(=O)O[C@H]2CN[C@H](C(=O)O)C2)cc1 (mixture of isomers) [(±)-Ibuprofen-L-hydroxyproline ester, 4(R)-[2-(4-Isobutyl-phenyl)-propionyloxy]-pyrrolidine-2(S)-carboxylic acid] [listing 2 of 2 here] | 5 | 4 | 7 | 7 |  |  |  |  |  |  |  |  |  |  |  |  | antagonizing the acetylcholine induced writhe, clinical observation ([1]; compared to other formulations, Ibuprofen (racemic) and Ibuprofen (S)-(+)): more effective in antagonizing the acetylcholine induced writhe |
| CC(C)(Oc1ccc(C(=O)c2ccc(Cl)cc2)cc1)C(=O)OC1CN[C@H](C(=O)O)C1.Cl (stereo partly drawn) [Fen-HP Ester, L-hydroxyproline-fenofibric acid ester, hydrochloride] |  |  |  |  | −32.92 | −59.45 | −16 | −47.8 | −49.31 | −65.80 | −35.8 | −70.8 | −7.52 | −72.82 | −3.4 | −112 |  |
| C[C@@H](OC(=O)C(C)(C)Oc1ccc(C(=O)c2ccc(Cl)cc2)cc1)[C@H](N)C(=O)O.Cl [Fen-T Ester, L-threonine-fenofibric acid ester, hydrochloride] |  |  |  |  | −23.21 | −37.68 | −18.2 | −36.4 | −35.00 | −63.71 | −23.8 | −77.6 | −68.45 | −75.04 | −63.8 | −88.4 | anti-hyperlipidemic properties (rats; listed as Fenofibric Acid-L-Threonine ester, hydrochloride): overall superior anti-hyperlipidemic properties; anti-hyperlipidemic properties (rats; listed as L-Threonine ester, hydrochloride): dose dependent decrease in triglycerides |
| CC(C)OC(=O)C(C)(C)Oc1ccc(C(=O)c2ccc(Cl)cc2)cc1 [Fenofibrate, reference compound] |  |  |  |  | −15.21 | −45.86 | −10.8 | −51 | −22.95 | −66.06 | −13.4 | −87.6 | −61.26 | −73.51 | −40.8 | −71.6 | Triglycerides, Day 7 (rats; 50 mg/kg group): 150 mg/dL; Triglycerides, Day zero (rats; 50 mg/kg group): 95 mg/dL and 92 mg/dL and 80 mg/dL; Triglycerides, Day 14 (rats; 50 mg/kg): 101 mg/dL and 76 mg/dL and 73 mg/dL; Triglycerides, Day zero (rats; 100 mg/kg group): 110 mg/dL and 115 mg/dL and 96 mg/dL; Triglycerides, Day 14 (rats; 100 mg/kg): 62 mg/dL and 69 mg/dL and 93 mg/dL; Triglycerides, Day 7 (rats; 200 mg/kg group): 90 mg/dL and 106 mg/dL and 125 mg/dL; Triglycerides, Day zero (rats; 200 mg/kg group): 144 mg/dL and 56 mg/dL and 58 mg/dL; Triglycerides, Day 14 (rats; 200 mg/kg): 48 mg/dL and 51 mg/dL and 38 mg/dL |
| CC(C)Cc1ccc([C@H](C)C(=O)O)cc1 [Ibuprofen (S)-(+), reference compound] | 5 | 1 | 6 | 6 |  |  |  |  |  |  |  |  |  |  |  |  |  |
| CC(C)(Oc1ccc(C(=O)c2ccc(Cl)cc2)cc1)C(=O)OC[C@H](N)C(=O)O.Cl [L-Serine Ester of Fenofibric Acid, L-serine-fenofibric acid ester, hydrochloride] |  |  |  |  | −61.64 | −72.82 | −54 | −90 | −44.10 | −67.90 | −31.4 | −84.2 | −33.23 | −63.27 | −20.8 | −72 | Triglycerides, Day 7 (rats; 50 mg/kg group, hydrochloride): 148 mg/dL and 145 mg/dL and 127 mg/dL; Triglycerides, Day zero (rats; 50 mg/kg group, hydrochloride): 88 mg/dL and 94 mg/dL and 100 mg/dL; Triglycerides, Day 14 (rats; 50 mg/kg, hydrochloride): 86 mg/dl (2×) and 73 mg/dl; Triglycerides, Day 7 (rats; 100 mg/kg group, hydrochloride): 100 mg/dL and 183 mg/dL; Triglycerides, Day zero (rats; 100 mg/kg group, hydrochloride): 109 mg/dL and 129 mg/dL and 71 mg/dL; Triglycerides, Day 14 (rats; 100 mg/kg, hydrochloride): 46 mg/dL and 69 mg/dL and 47 mg/dL; Triglycerides, Day 7 (rats; 200 mg/kg group, hydrochloride): 240 mg/dL and 158 mg/dL and 77 mg/dL; Triglycerides, Day zero (rats; 200 mg/kg group, hydrochloride): 74 mg/dL and 81 mg/dL and 42 mg/dL; Triglycerides, Day 14 (rats; 200 mg/kg, hydrochloride): 83 mg/dL and 61 mg/dL and 46 mg/dL |
| CC(C)c1cccc(C(C)C)c1O [Propofol injection, 2,6-diisopropylphenol, reference compound] |  |  |  |  |  |  |  |  |  |  |  |  |  |  |  |  | dose response relation (statistical analysis) (albino mouse): statistically significant and clearly evident; feed intake ([2]; 14 days): normal and comparable to that of vehicle control group; animals exhibiting clinical symptoms of toxicity ([2]; IV daily 14 days): None of the animals; body weight gain ([2]; IV daily 14 days, compared to vehicle control): normal and comparable to that of vehicle control group of animals |
